Results published in PMC10597453, “Novel inhibitors that target bacterial virulence identified via HTS against intra-macrophage survival of Shigella flexneri” (mSphere, 2023).
≈ marks a conversion by molar mass, not a printed value. Read-outs that look alike come from different tables or passages of the source.

Assays:
[1] = test system: Shigella propagation in Caco2 cells; assay: Inhibition of Shigella propagation in Caco2 cells assay; assay type: cell-based, Shigella flexneri; conditions: for IC50: INCACO2CELLS, Caco-2
Procedure: The inhibition of Shigella propagation in Caco2 cells assay was performed following the previously described protocol based on microcarrier cell culture which models the in vivo three-dimensional environment with the minor modifications. This protocol will be described in a forthcoming paper (V. Phat, A. Lim, S. Lozano, C. De Cozar-Gallardo, M. Castellote-Alvaro, J. Rodrigues, A. Villegas, D. Alvarez, E. Alvaro, L. Ballell-Pages, S. Baker, unpublished data) and is available upon request (see Data Availability Statement).

[2] = test system: S. flexneri 2457T-nl in THP-1 macrophages; assay: Shigella intra-macrophage survival dose-response assay (luciferase readout)
Procedure: The experimental protocol for the Shigella intra-macrophage survival screen is divided into three time segments: (i) THP-1 macrophage and bacteria preparation 1 day prior to compound screen assay, (ii) THP-1 differentiation, invasion, gentamicin treatment, dispensing of infected cells onto plates pre-dispensed with compounds to be tested, and the beginning of their incubation performed on the same day, and (iii) dispensing of the Nano-Luc substrate and luminescence readout after 18 hours of incubation.
The assay was adapted to the 1,536-well plate format for the HTS. A multidrop dispenser with the small tube metal tip cassette (Thermo Fisher Scientific) was used to seed 5 µL of the cell suspension to plates pre-dispensed with compounds to be tested that were transferred to RT 1–1.5 hours before adding infected cells. Plates were incubated for 18 hours at 37°C in a humidified atmosphere with 5% CO2.
After incubation, the bacterial count is quantified by luminescence readout. Luminescence correlated linearly with the number of viable bacteria. The Nano-Luc substrate solution was prepared according to the manufacturer (Nano-Glo Luciferase Assay System, Promega, Madison, WI, USA). A multidrop dispenser with the small tube metal tip cassette (Thermo Fisher Scientific) was used to dispense 2 µL of substrate per well, and plates were stored in the dark prior to reading. Luminescence was read (0.1 s/well) on a microplate reader (EnVision, PerkinElmer) after 30 minutes of incubation at RT.
The dose-response assay was performed following the above protocol using different plate formats.

[3] = target: T1, Nano-Luc reporter (S. flexneri 2457T-nl reporter strain) (Oplophorus gracilirostris, UniProt Q9GV45, A31E/A60N/A81I/F95D/I117V/K70R/L54V/L99Q/M102K/N193R/P142E/Q151K/Q38R/Q45L/V71I/Y165I); assay: Nano-Luc inhibition (assay readout interference); assay type: cell-based
T1 construct: expressed in transfected cells; host or cells: Shigella flexneri serotype 2a strain 2457T carrying plasmid pMK-RQ-nl

S. flexneri 2457T = assay: Shigella antibacterial assay (resazurin); assay type: cell-based, Shigella flexneri; conditions: for MIC90: S. flexneri 2457T, resazurin assay
Procedure: An antibacterial assay against S. flexneri 2457T was performed according to the previously described protocol ([40]). The antibacterial assay was used to determine the MIC90 values of potential inhibitors for S. flexneri 2457T. The assay measures the effect of compounds on the bacteria using resazurin (Thermo Fisher Scientific) measurement as surrogate of bacterial viability. Briefly, to perform the extracellular dose responses, compounds were pre-dispensed in DMSO, and threefold serial dilutions were made for each compound into 384-well plate format. Bacterial inoculum for the assay was prepared in MH medium, resulting at 1 × 10^6 CFU/mL, and 5 µL of this culture was dispensed per well. Then, plates were incubated at 37°C overnight. The resazurin reagent (10 µL) was added to each well followed by an incubation at RT and darkness for 3 hours. The fluorescence intensity of the assay plates was measured using microplate reader (EnVision, PerkinElmer). For MIC90 determination, data were normalized by using DMSO at a final concentration of 0.5% as the negative control (100% bacterial growth) and moxifloxacin at a final concentration of 20 µM as the positive control (0% bacterial growth). The experiment was done in duplicate.

[4] = Shigella flexneri, THP-1, 18 h, read-out: Survival inhibition IC50
[5] = Shigella flexneri, THP-1, read-out: Shigella Intra-macrophage Survival IC50
[6] = read-out: Nano-Luc interference IC50, S. flexneri 2457T-nl reporter strain in MH medium, 18 hours

T1 sequence (Q9GV45 28-196 with tags or gaps with the stated changes limits assumed): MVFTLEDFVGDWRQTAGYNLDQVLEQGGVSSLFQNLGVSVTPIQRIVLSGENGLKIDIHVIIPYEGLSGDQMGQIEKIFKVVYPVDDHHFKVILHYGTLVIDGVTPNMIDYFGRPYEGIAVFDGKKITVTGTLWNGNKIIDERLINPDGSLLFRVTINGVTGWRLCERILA

| Compound | IC50 [1] [µM] | IC50 [2, 4] [µM] | IC50 [3] [µM] | other results |
| --- | --- | --- | --- | --- |
| Cc1ccccc1-c1c(C#N)c(N)nc(SCc2ccccc2)c1C#N [AN1-77-01] | 14 | 0.79 |  |  |
| N#Cc1cc(C(=O)c2ccccc2O)cn(-c2ccccn2)c1=O [AN1-152-01] | 2.7 | 0.31 | 25 |  |
| N#Cc1cc(C(=O)c2ccccc2O)cn(-c2ccc(Cl)cc2)c1=O [AN1-152-02] | 0.3 | 0.0039 | 3.7 |  |
| N#Cc1cc(C(=O)c2ccccc2O)cn(C2CCCC2)c1=O [AN1-152-03] | 1.7 | 0.48 | 62 |  |
| Cc1ccc(-n2cc(C(=O)c3cc(Cl)ccc3O)cc(C#N)c2=O)cc1 [AN1-152-04] | 6.2 | 0.57 |  |  |
| Cc1ccc(-n2cc(C(=O)c3cc(C)ccc3O)cc(C#N)c2=O)cc1 [AN1-152-05] | 0.3 | 0.1 | 12 |  |
| COc1ccc(-n2cc(C(=O)c3cc(Cl)ccc3O)cc(C#N)c2=O)cc1 [AN1-152-06] | 3.9 | 0.49 |  |  |
| COc1ccc(-n2cc(C(=O)c3cc(C)ccc3O)cc(C#N)c2=O)cc1 [AN1-152-07] | 0.2 | 0.21 | 27 |  |
| Cc1ccc(-n2cc(C(=O)c3cc(F)ccc3O)cc(C#N)c2=O)cc1 [AN1-152-08] | 1.9 | 0.43 |  |  |
| Cc1cccc(-n2cc(C(=O)c3cc(F)ccc3O)cc(C#N)c2=O)c1 [AN1-152-09] | 10 | 0.73 |  |  |
| CCOc1ccc(-n2cc(C(=O)c3cc(F)ccc3O)cc(C#N)c2=O)cc1 [AN1-152-10] |  | 0.24 | 50 | Propagation in Caco2 IC50 [1]: Inactive |
| N#Cc1ccc(C(=O)Nc2nnc(-c3ccncc3)s2)cc1 [AN2-45-02] | 14 | 0.89 |  |  |
| Cc1c(-c2cccs2)[nH]c2c(C#N)cnn2c1=O [AN-5-02] | 2.1 | 0.09 | 0.78 |  |
| N#Cc1ccc(C(=O)Nc2cccc(-c3ccc(CN4CCNCC4)cc3)c2)cc1 [AN-30-01] |  | 0.88 |  | Propagation in Caco2 IC50 [1]: Inactive |
| CC[C@H]1OC(=O)[C@H](C)[C@@H](O[C@H]2C[C@@](C)(OC)[C@@H](O)[C@H](C)O2)[C@H](C)[C@@H](O[C@@H]2O[C@H](C)C[C@H](N(C)C)[C@H]2O)[C@](C)(O)C[C@@H](C)CN(C)[C@H](C)[C@@H](O)[C@]1(C)O [Azithromycin, azithromycin, reference compound] |  |  |  | MIC90 (S. flexneri 2457T; Shigella flexneri): 10 µM (≈ 7.49 µg/mL); IC50 [2, 5]: 0.08 µM |
| CO/N=C(\C(=O)N[C@@H]1C(=O)N2C(C(=O)O)=C(CSc3nc(=O)c(=O)[nH]n3C)CS[C@H]12)c1csc(N)n1 [Ceftriaxone, ceftriaxone, reference compound] |  |  |  | MIC90 (S. flexneri 2457T; Shigella flexneri): 0.1 µM (≈ 0.0555 µg/mL); IC50 [2, 5]: 0.01 µM |
| O=C(O)c1cn(C2CC2)c2cc(N3CCNCC3)c(F)cc2c1=O [Ciprofloxacin, ciprofloxacin, reference compound] |  |  |  | MIC90 (S. flexneri 2457T; Shigella flexneri): 0.07 µM (≈ 0.0232 µg/mL); IC50 [2, 5]: 0.007 µM |
| Cc1ccc(C2=NN(C3=NC(=O)C(CC(=O)Nc4ccccc4)S3)C(c3ccccc3)C2)cc1 (stereo not drawn) [Compound S-10-01] | 0.5 | 0.41 | 11 |  |
| Cc1ccc(NC(=O)CC2SC(N3N=C(c4cccs4)CC3c3ccccc3)=NC2=O)cc1 (stereo not drawn) [Compound S-10-03] | 1.1 | 0.62 |  |  |
| COc1ccc(-n2nnnc2SC(C(=O)N(C)C)c2ccccc2)cc1 (stereo not drawn) [Compound S-28-01] | 4.5 | 0.99 | 5 |  |
| CCc1cccc(CC)c1NC(=O)c1c(-c2ccccc2)noc1C [Compound S-53-01] | 1.5 | 0.17 | 1.2 |  |
| Cc1noc2ncn(Cc3nc(Cc4ccccc4F)no3)c(=O)c12 [Compound S-82-01] | 19 | 1 | 19 |  |

| Compound | IC50 [1] [µM] | IC50 [2, 4] [µM] | IC50 [3] [µM] | other results |
| --- | --- | --- | --- | --- |
| Cc1cc(CNC(=O)CCc2c(C)nc3cc(O)nn3c2C)no1 [Compound S-86-01] | 1 | 0.27 | 1.7 |  |
| CCN(C(=O)Cn1c(-c2nonc2N)nc2ccccc21)c1ccccc1 [Compound S-134-02] | 4.9 | 0.68 | 5.1 |  |
| O=C(CN1CCc2ccccc2C1)Nc1cnccc1C(=O)O [Compound S-136-01] | 3.1 | 0.62 | 3 |  |
| COc1ccc(CCNC(=O)c2nc(O)c3nnn(Cc4ccc(F)cc4)c3n2)cc1OC [Compound S-169-01] | 21 | 0.59 | 12 |  |
| CN(C(=O)Cc1cccs1)C1(C(=O)NC2CCCCC2)CCCCC1 [Compound S-185-01] | 4.3 | 0.7 |  | IC50 [3, 6]: 3.8 µM |
| COc1ccc(N2CCN(c3nc4ncccc4o3)CC2)cc1 [Compound S-281-01] | 24 | 0.64 | 28 |  |
| CC(C)c1noc2ncc(C(=O)c3ccccc3O)cc12 [Compound S-316-01] | 1.9 | 1.3 |  |  |
| CC(NC(=O)NC(C)c1cccs1)c1ccc2c(c1)OCCO2 (stereo not drawn) [Compound S-378-01] | 6.6 | 1 |  |  |
| O=S(=O)(Nc1ccc(F)cc1C(F)(F)F)c1ccc(-c2cccs2)s1 [DS1-32-04] | 3.8 | 0.41 |  | IC50 [3, 6]: 3.1 µM |
| O=S(=O)(Nc1ccccc1C(F)(F)F)c1ccc(-c2ccc(F)cc2)s1 [DS1-32-05] | 3.1 | 0.56 | 3 |  |
| COc1ccc(S(=O)(=O)Nc2ccc(Cl)cc2F)cc1[N+](=O)[O-] [DS2-187-03] | 3 | 0.7 |  |  |
| Cc1nn(-c2ccccc2)c(C)c1S(=O)(=O)Nc1nc2c(s1)CCCC2 [DS-61-01] | 2.3 | 0.5 | 2.2 |  |
| COc1ccc2nc(NS(=O)(=O)c3cccc(C#N)c3)sc2c1 [DS-64-06] | 3.1 | 0.44 | 9.5 |  |
| Cc1ncccc1Oc1ncc(Cl)cc1S(=O)(=O)Nc1cccc(Cl)c1 [DS-90-01] | 10 | 1.2 | 65 |  |
| COc1ccc(CN(C)S(=O)(=O)c2nnc(NC(=O)c3cccc(Cl)c3)s2)cc1OC [DS-299-02] | 2.5 | 0.8 | 4.6 |  |
| CC1(C)S[C@@H]2[C@H](/N=C/N3CCCCCC3)C(=O)N2[C@H]1C(=O)O [Mecillinam, mecillinam, reference compound] |  |  |  | MIC90 (S. flexneri 2457T; Shigella flexneri): 0.2 µM (≈ 0.0651 µg/mL); IC50 [2, 5]: 0.7 µM |
| COc1ccc(-c2ccn(CC[C@](C)(C(=O)NO)S(C)(=O)=O)c(=O)c2)c(F)c1 [PF-5081090, reference compound] |  |  |  | MIC90 (S. flexneri 2457T): 0.2 µM (≈ 0.0825 µg/mL); IC50 ([2]; read-out: Shigella Intra-macrophage Survival IC50, commercially available antibiotics, luciferase assay): 0.06 µM |
| Fc1ccc(-c2oncc2-c2nnnn2-c2ccccc2)c(F)c1 [PT-297-01] | 2.1 | 0.43 | 8.3 |  |
| Fc1ccc(-c2oncc2-c2nnnn2-c2ccccc2)cc1F [PT-297-02] | 1.2 | 0.27 | 4.9 |  |
| c1ccc(-n2nnnc2-c2cnoc2-c2cccs2)cc1 [PT-297–03] | 3 | 0.5 | 8.1 |  |
| CC(C)(C)C(=O)OCOC(=O)[C@@H]1N2C(=O)[C@@H](/N=C/N3CCCCCC3)[C@H]2SC1(C)C [Pivmecillinam, pivmecillinam] |  |  |  | MIC relative to survival IC50 (times higher) (S. flexneri 2457T; MIC vs intra-macrophage survival IC50): very similar; MIC90 (S. flexneri 2457T; Shigella flexneri): 1 µM (≈ 0.44 µg/mL); IC50 [2, 5]: 0.9 µM |
| COc1c(N2C[C@@H]3CCCN[C@@H]3C2)c(F)cc2c(=O)c(C(=O)O)cn(C3CC3)c12 [moxifloxacin, reference compound] |  |  |  | bacterial survival ([2]; 20 µM, macrophage permeable positive control): no detectable bacterial survival |
